Laboratory results as given in patent publication US20060183794A1, “Drug composition containing nf-kb inhibitor” (priority 2002, published 2006).

Legend:
[1] = tested on: K562 (myelocytic leukemia cell line); assay: MTT assay, proliferation of control cell line K562; format: cell-based
Experimental: (§1) Cells from the ATL cell lines (MT-1 and TL-Om1) and a control cell line (K562) were plated in 96-well plates at 1×10^5 cells/well and DHM2EQ was added at the desired final concentrations (2, 5, and 10 μg/ml). Cells to which the solvent DMSO had been added in equal volume (0 μg/ml) were used as […] incubation for 72 hours, cell viability was judged by the MTT assay. Relative MTT values were obtained as the ratio of the MMT values of DHM2EQ-treated cells to those of DHM2EQ-untreated cells, i.e., (MTT values of DHM2EQ-treated cells/MTT values of DHM2EQ-untreated cells)×100(%).
(§2) DHM2EQ was added to the ATL cell lines (MT-1 and TL-Om1) and a control cell line (K562) at a final concentration of 10 μg/ml and the cells were incubated for 12, 24, 48, and 72 hours. The proliferation-inhibitory effect was examined by the MTT assay. Cells to which the solvent DMSO had been added in equal volume were used as controls. Relative MTT values were obtained in the same manner as the aforementioned (1).
Time-course analysis and concentration dependence analysis of the inhibitory effect of DHM2EQ on proliferation of Hodgkin's lymphoma cells were performed in the same manner as in Example 2. As Hodgkin's lymphoma cells, the Hodgkin's lymphoma cell lines KMH-2 and L-540 were used.

[2] = tested on: human pancreatic cancer cell lines, Panc-1, PK-8, and Colo357; assay: In vitro proliferation of human pancreatic cancer cell lines, DHMEQ with irradiation; format: cell-based
Experimental: The in vitro suppressive effect of DHMEQ on proliferation of human pancreatic cancer cell lines when DHMEQ and irradiation are used in combination was investigated. The human pancreatic cancer cell lines, Panc-1, PK-8, and Colo357 were plated 10 cm dishes (5×10^5 cells each). After two days, cells were irradiated with either 2.5 Gy or 10 Gy radiation, followed by administration of 10 μg/ml DHMEQ for 4 hours in the combinatin group. The number of cells was measured after 24 hours. Either the point of the completion of irradiation or the point of the start of the drug administration was assumed to be 0 hours.

[3] = tested on: multiple myeloma cell line 196TIB; assay: MTT assay, proliferation of multiple myeloma cell line 196TIB; format: cell-based
Experimental: as §1
Concentration dependence analysis of the inhibitory effect of DHM2EQ on proliferation of multiple myeloma cells was performed in the same manner as in Example 2. As multiple myeloma cells, the multiple myeloma cell line 196TIB was used.

NF-κB [4] = target: T1, NF-κB (Homo sapiens, UniProt P19838+Q04206); assay: Gel shift assay of NF-κB activation by antitumor agents in KMH2 cells; format: cell-based; parameters: endogenous in cells; host or cells: HL cell lines KMH2, L428, L540, HDLM2 (A30: KMH2 treated with antitumor agents); conditions: camptothecin or daunomycin with concurrent DHMEQ
Target sequence in this assay (P19838 1-433 limits assumed): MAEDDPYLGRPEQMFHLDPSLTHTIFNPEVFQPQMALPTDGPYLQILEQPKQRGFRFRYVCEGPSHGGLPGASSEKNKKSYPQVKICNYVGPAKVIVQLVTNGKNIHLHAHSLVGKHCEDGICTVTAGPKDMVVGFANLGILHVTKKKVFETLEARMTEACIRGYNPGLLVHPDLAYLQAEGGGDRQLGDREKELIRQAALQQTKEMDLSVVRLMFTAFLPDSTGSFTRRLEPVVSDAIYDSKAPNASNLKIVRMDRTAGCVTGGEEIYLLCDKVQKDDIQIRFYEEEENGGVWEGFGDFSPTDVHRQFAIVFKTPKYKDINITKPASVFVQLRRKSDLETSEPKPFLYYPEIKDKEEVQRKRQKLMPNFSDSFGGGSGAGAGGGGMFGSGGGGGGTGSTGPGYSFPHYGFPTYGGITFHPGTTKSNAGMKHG
Target sequence in this assay (Q04206 whole entry): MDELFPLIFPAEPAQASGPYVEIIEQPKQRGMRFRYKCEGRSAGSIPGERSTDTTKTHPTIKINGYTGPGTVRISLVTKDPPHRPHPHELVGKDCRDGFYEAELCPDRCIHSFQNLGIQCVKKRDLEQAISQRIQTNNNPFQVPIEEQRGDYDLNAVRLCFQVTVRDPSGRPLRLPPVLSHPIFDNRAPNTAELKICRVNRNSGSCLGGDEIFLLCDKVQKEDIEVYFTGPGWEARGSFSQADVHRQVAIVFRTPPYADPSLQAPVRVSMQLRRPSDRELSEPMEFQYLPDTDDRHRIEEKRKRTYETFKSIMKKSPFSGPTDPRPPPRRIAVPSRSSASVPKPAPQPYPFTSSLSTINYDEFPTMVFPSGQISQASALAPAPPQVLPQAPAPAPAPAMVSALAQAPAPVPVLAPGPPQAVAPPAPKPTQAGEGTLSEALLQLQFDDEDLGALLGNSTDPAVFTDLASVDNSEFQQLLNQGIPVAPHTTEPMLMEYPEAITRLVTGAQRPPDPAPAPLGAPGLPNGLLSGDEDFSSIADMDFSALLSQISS
Experimental: The ATL cell lines (MT-1 and TL-Om1) and the control cell lines (K562 and Jurkat+TNF), 2×10^6 cells each, were treated with 10 μg/ml DHM2EQ for 12 hours, and nuclear extract was prepared from each cell line. Likewise, nuclear extract was prepared also from the cell lines not treated with DHM2EQ.
The equivalent of 2 μg of nuclear extract protein was mixed with NF-κB probes (the equivalent of 10,000 cpm) in a volume of 20 μl and reacted at room temperature for 30 min. The solution after the reaction was subjected to 7.5% polyacrylamide gel electrophoresis. The gel was then dried and exposed to an X-ray film.

HUVECs = assay: Toxicity to and proliferation of HUVECs; format: cell-based, human; conditions: DHMEQ 3 μg/ml
[5] = tested on: ICAM-1, VCAM-1, and E-selectin; assay: Western blot of adhesion molecule expression in TNF-α-stimulated HUVECs; format: cell-based, human; conditions: HUVECs pretreated with DHMEQ for 2 hours, 10 ng/ml TNF-α
Experimental: The protein concentration of this supernatant was determined by a liquid of Coomassie Brilliant Blue (Bio-Rad), and concentration was adjusted. Subsequently, 3×SDS loading buffer (150 mM Tris-HCl: pH 6.8, 30% glycerol, 3% SDS (Kanto Kagaku), 0.03 mg/ml bromophenol blue, 150 μl/ml 2-mercaptoethanol (Kanto Kagaku)) was added at a volume equal to half the volume of the lysis buffer that had been added, followed by boiling for 5 min. Using this as a sample, electrophoresis was performed in a 12.5% polyacrylamide gel. After the electrophoresis, the proteins in the gel were transferred to a PVDF membrane (Amersham) and blocked with TBS buffer (20 mM Tris-HCl: pH7.6, 137 mM NaCl) containing 5% skim milk (Snow Brand). Subsequently, the proteins were reacted with the PVDF membrane using antibodies to ICAM-1 (Santa Cruz), VCAM-1 (Santa Cruz), and E-selectin (Santa Cruz), followed by reactions with secondary antibodies (the secondary antibodies to ICAM-1, VCAM-1, and E-selectin (Amersham and Santa Cruz)) suitable to each primary antibody. Further, color was developed by the ECL method, followed by exposure to a film.

NF-κB [6] = target: T1, NF-κB; assay: Reporter gene (luciferase) assay of NF-κB transcriptional activity in ATL cell lines; format: cell-based; parameters: endogenous in cells; conditions: MT-1 and TL-Om1; 5 μg/ml DHM2EQ; remaining activity vs untreated
Experimental: To examine the transcriptional activity of NF-κB, by using a luciferase construct (6 kB-Luc plasmid), containing six tandem copies of the NF-κB binding sequence, driven with an artificial promoter as a reporter, this plasmid DNA was transiently introduced into the ATL cell lines (MT-1 and TL-Om1) as well as into the control cell line (K562) (transfected on a scale of 2×10^5 cells/transfection using DMRIE-C (Invitrogen)). After 12 hours, treatment with 5 μg/ml DHM2EQ was started. Cells were recovered after 48 hours and the transcriptional activity of NF-κB was evaluated as the enzyme activity of the luciferase. The cell lines not treated with DHM2EQ were also evaluated in the same manner. All experiments were performed three times to obtain average values as well as standard deviations.
Target sequence in this assay (Q04206 whole entry): as above
Target sequence in this assay (P19838 1-433 limits assumed): as the sequence (P19838 1-433 limits assumed) above

[7] = tested on: MM cell lines, KMM1, RPMI8226, and U266; assay: MTT assay, proliferation of multiple myeloma cell lines; format: cell-based
Experimental: as §1, §2
To investigate the influence of the DHMEQ concentrations on inhibition of cell proliferation, the cell viability was judged by using the MM cell lines, KMM1, RPMI8226, and U266 in the same method as in Example 5-(1). […]

[8] = tested on: cells of multiple myeloma (MM) patients; assay: Hoechst staining apoptosis assay, cells of multiple myeloma patients; format: cell-based, human; conditions: 10 μg/ml, 72 hours
Experimental: Further, to investigate apoptosis induction of cells of multiple myeloma (MM) patients by DHMEQ, cells of multiple myeloma (MM) patients were incubated for 72 hours at a concentration of 10 μg/ml and the apoptosis was examined by observing nuclear condensation or fragmentation with a fluorescence microscope, using Hoechst staining.

SMILES: O=C(NC1=CC(=O)C2OC2C1O)c1ccccc1O (stereo not drawn) [DHMEQ, 5,6-epoxy-4-hydroxy-3-salicyloylamino-2-cyclohexenone]
- cell proliferation, time course (MTT) ([1]; 10 μg/ml, 12, 24, 48, 72 hours, listed as DHM2EQ): hardly inhibited even after time had elapsed
- cell proliferation, concentration dependence (MTT) ([1]; 2, 5, 10 μg/ml, 72 hours): hardly inhibited
- suppressive effect on proliferation in combination with irradiation ([2]; Colo357 and Panc-1, 10 μg/ml 4 hours after irradiation): synergistic suppressive effect
- enhancement of irradiation effect (2.5 Gy to 10 Gy or equivalent) ([2]; Colo357 and Panc-1, combination with irradiation): four-fold
- suppressive effect on proliferation, DHMEQ alone ([2]; PK-8 and Colo357, 10 μg/ml, 4-hour contact, cell number after 24 hours): sufficient suppressive effect
- radiation dose of equal effect ([2]; PK-8 and Colo357, 10 μg/ml, 4 hours): 2.5 Gy
- effectiveness of DHMEQ alone ([2]; Panc-1): less effective
- cell proliferation, concentration dependence [3]: inhibited in proportion to the DHM2EQ concentrations added
- NF-κB induction by antitumor agent (NF-κB [4]): strongly suppressed
- toxicity to HUVECs and suppression of their proliferation (HUVECs): neither exhibited toxicity to HUVECs nor suppressed their proliferation
- expression of ICAM-1, VCAM-1 and E-selectin [5]: markedly suppressed
- luciferase activity suppressed to (NF-κB transcriptional activity) (NF-κB [6]): about 50%
- cell proliferation, concentration dependence (MTT) [7]: suppressed in proportion to the DHMEQ concentrations
- cell proliferation, time course (MTT) [7]: suppressed in proportion to the DHMEQ treatment time
- apoptosis (Hoechst staining) [8]: induces apoptosis
